In brackets after ≈: the same amount, converted by molar mass.
Experiments:
[1] = Assessment of solubility: HT solubility in pION buffer, UV spectrophotometry; conditions: 16-19 h incubation, 1.0% DMSO; for solubility: pION system solution buffer, kinetic from dmso stock
[2] = biological target: T1, Recombinant human soluble guanylate cyclase (sGC), alpha 1 / beta 1 subunits, heme-free (Homo sapiens, UniProt Q02108+Q02153); test: Molecular assay: cGMP formation by heme-free recombinant sGC (CisBio cGMP detection kit); assay type: biochemical; conditions: 300 pM heme-free sGC, 37° C., 60 min, cGMP readout; read-out: EC50 nM, Activity of Compounds in Molecular Assay
T1 construct: histidine tag (C); made in house; host or cells: Sf9 insect cells (baculovirus coinfection)
T1 sequence (Q02108 1-690 partner): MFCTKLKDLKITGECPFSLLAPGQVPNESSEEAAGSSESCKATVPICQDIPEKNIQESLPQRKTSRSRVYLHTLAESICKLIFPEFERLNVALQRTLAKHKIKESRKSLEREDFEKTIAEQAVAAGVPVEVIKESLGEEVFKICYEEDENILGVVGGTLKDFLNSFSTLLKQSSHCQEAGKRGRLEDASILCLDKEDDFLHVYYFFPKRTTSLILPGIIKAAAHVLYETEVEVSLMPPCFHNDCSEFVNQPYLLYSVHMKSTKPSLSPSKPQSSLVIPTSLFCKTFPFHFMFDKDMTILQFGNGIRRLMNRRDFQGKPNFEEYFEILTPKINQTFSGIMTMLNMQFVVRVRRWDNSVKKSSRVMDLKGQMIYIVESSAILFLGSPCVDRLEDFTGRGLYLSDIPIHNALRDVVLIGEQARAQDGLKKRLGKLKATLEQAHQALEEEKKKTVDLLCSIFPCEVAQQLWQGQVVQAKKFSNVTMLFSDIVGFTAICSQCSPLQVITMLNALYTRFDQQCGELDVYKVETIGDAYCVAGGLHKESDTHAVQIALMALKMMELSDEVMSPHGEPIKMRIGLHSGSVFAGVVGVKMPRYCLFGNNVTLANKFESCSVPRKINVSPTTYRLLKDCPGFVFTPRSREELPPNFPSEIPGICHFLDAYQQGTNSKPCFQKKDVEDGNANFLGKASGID
T1 sequence (Q02153 1-619): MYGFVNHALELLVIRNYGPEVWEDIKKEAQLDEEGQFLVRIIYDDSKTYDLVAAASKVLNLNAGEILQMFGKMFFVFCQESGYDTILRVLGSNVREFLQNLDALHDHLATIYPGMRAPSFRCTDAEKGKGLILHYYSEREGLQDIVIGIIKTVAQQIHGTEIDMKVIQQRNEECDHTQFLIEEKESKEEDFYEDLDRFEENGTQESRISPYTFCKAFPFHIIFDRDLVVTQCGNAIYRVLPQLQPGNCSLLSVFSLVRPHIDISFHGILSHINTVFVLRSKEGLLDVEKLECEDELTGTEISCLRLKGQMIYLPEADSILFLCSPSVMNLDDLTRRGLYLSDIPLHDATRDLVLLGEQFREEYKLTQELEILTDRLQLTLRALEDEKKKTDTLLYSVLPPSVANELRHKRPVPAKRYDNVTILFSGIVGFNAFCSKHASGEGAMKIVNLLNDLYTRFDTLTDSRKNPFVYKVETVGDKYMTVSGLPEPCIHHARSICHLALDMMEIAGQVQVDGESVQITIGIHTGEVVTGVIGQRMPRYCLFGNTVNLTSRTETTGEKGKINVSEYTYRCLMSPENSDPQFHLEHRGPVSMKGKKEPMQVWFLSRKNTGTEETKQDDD
Description: Recombinant human soluble guanylate cyclase (sGC) is purified from Sf9 insect cells coinfected with baculoviruses expressing the alpha 1 or beta 1 subunit of sGC, both with a C-terminal histidine tag. Heme-free sGC is prepared by treating cell lysate with a final concentration of 0.5% Tween 20 prior to purification on a nickel affinity column.
sGC catalyzes the conversion of guanosine-5′-triphosphate (GTP) to cyclic guanosine monophosphate (cGMP). The activity of sGC is measured in vitro using the commercially available CisBio cGMP detection kit (catalog # 62GM2PEB) in a 384 well format. In brief, 300 pM heme-free sGC is incubated in reaction buffer (50 mM MOPS pH 6.8, 0.2 N KOH, 50 mM NaCl, 2 mM MgCl2, 0.1% BSA, 1.25 mM IBMX, 0.25 mM TCEP, 50 nM GTP) in the presence or absence of dilutions of test compounds diluted in DMSO (final concentration of 1%) in a volume of 10 microL at 37° C. for 60 min. Undiluted reaction products or an 80-fold dilution of reaction products (10 microL of either) prepared in reaction buffer containing 0.2 mM TCEP and 10 mM EDTA is mixed with 5 microL of d2-cGMP plus 5 microL of Eu^3+ cryptate-labeled anti-cGMP, each diluted in buffer containing 0.1 M KPO4 pH 7.5, 0.4 M KF, 20 mM EDTA, 0.2% BSA. After a one h incubation at room temperature in the dark, the mixtures are quantified on an EnVision plate reader (PerkinElmer) according to manufacturer instructions (laser excitation 337 nm, emission 620 and 665 nm). The ratio at each compound concentration is converted to nM cGMP using the linear portion of a calibration curve. Log compound concentration is plotted against combined undiluted and diluted nM cGMP values to determine the EC50 for each curve.

[3] = pH 4.5, pH 4.5, aqueous buffer, Solubility (pH 4.5), pH 4.5 buffer
[4] = pH 7.4, pH 7.4, aqueous buffer, Solubility (pH 7.4), pH 7.4 buffer

Row | solubility [1, 3] | solubility [1, 4] | EC50 [2] | Solubility (pH 4.5) ([1]; pH 4.5 buffer) | SMILES
1 | 0.15 µg/mL (≈ 0.283 µM) | 29 µg/mL (≈ 54.6 µM) | 310 nM | – | Cc1ccc(OCc2ccc(C(=O)N3CCCCC3)cc2C)c(-c2csc(C3=CCC(C(=O)O)CC3)n2)c1 (stereo not drawn) [Compound 32]
2 | > 60 µg/mL | > 60 µg/mL | 7800 nM | – | Cc1cc(CN2CCOCC2)ccc1COc1ccc(C#N)cc1-c1csc(N2CC3C(C2)C3C(=O)O)n1 (stereo not drawn) [Compound 33]
3 | 0.9 µg/mL (≈ 1.69 µM) | > 53 µg/mL | 390 nM | – | Cc1ccc(OCc2ccc(C(=O)N3CCCCC3)cc2C)c(-c2csc(N3CC4C(C3)C4C(=O)O)n2)c1 (stereo not drawn) [Compound 34]
4 | > 53 µg/mL | > 53 µg/mL | 280 nM | – | Cc1cc(CN2CCOCC2)ccc1COc1c(C#N)cccc1-c1csc(N2CCC(C(=O)O)CC2)n1 [Compound 35]
5 | > 64 µg/mL | > 64 µg/mL | 140 nM | – | Cc1cccc(-c2csc(N3CCC(C(=O)O)CC3)n2)c1OCc1ccc(CN2CCOCC2)cc1C#N [Compound 36]
6 | 0.15 µg/mL (≈ 0.282 µM) | > 53 µg/mL | 2100 nM | – | Cc1ccc(OCc2ccc(C(=O)N3CCCCC3)cc2C)c(-c2csc([C@H]3CC[C@@H](C(=O)O)CC3)n2)c1 [Compound 37]
7 | 0.25 µg/mL (≈ 0.469 µM) | > 53 µg/mL | 1700 nM | – | Cc1ccc(OCc2ccc(C(=O)N3CCCCC3)cc2C)c(-c2csc([C@H]3CC[C@H](C(=O)O)CC3)n2)c1 [Compound 38]
8 | 0.95 µg/mL (≈ 1.78 µM) | > 53 µg/mL | 27 nM | – | Cc1ccc(OCc2ccc(C(=O)N3CCCCC3)cc2C)c(-c2csc(N3CCC(C(=O)O)CC3)n2)c1 [Compound 39]
9 | 2.3 µg/mL (≈ 4.31 µM) | > 53 µg/mL | 2600 nM | – | Cc1ccc(OCc2ccc(C(=O)N3CCCCC3)cc2C)c(-c2csc(N[C@H]3CC[C@@H](C(=O)O)C3)n2)c1 [Compound 40, (1R,3S)-3-[[4-[5-methyl-2-[[2-methyl-4-(piperidine-1-carbonyl)phenyl]methoxy]phenyl]thiazol-2-yl]amino]cyclopentanecarboxylic acid]
10 | 1.1 µg/mL (≈ 2.06 µM) | > 53 µg/mL | 70 nM | – | Cc1cc(C(=O)N2CCCCC2)ccc1COc1ccccc1-c1csc(N2CCC(C(=O)O)CC2C)n1 (stereo not drawn) [Compound 41]
11 | 0.45 µg/mL (≈ 0.843 µM) | > 53 µg/mL | 51 nM | – | Cc1cc(C(=O)N2CCCCC2)ccc1COc1ccccc1-c1csc(N2CCC(C(=O)O)C(C)C2)n1 (stereo not drawn) [Compound 42]
12 | > 60 µg/mL | > 60 µg/mL | 63 nM | – | Cc1cc(CN2CCOCC2)ccc1COc1ccccc1-c1csc(N2CC3CCC(C2)C3C(=O)O)n1 (stereo not drawn) [Compound 43]
13 | > 64 µg/mL | 35 µg/mL (≈ 65.6 µM) | 730 nM | – | Cc1ccc(OCc2ccc(CNC3CCCCC3)cc2C)c(-c2csc(N3CCC(C(=O)O)CC3)n2)c1 [Compound 45]
14 | > 64 µg/mL | > 64 µg/mL | 260 nM | – | COCCN(C)Cc1ccc(COc2ccc(C)cc2-c2csc(N3CCC(C(=O)O)CC3)n2)c(C#N)c1 [Compound 46]
15 | > 64 µg/mL | > 64 µg/mL | 4000 nM | – | Cc1ccc(OCc2ccc(CNC(C)(C)CO)cc2C#N)c(-c2csc(N3CCC(C(=O)O)CC3)n2)c1 [Compound 47]
16 | – | 27 µg/mL (≈ 50.5 µM) | 360 nM | 0.1 μg/mL | Cc1cc(C(=O)N2CCCCC2)ccc1COc1ccc(F)cc1-c1csc(C2=CCC(C(=O)O)CC2)n1 (stereo not drawn) [Compound 48]
17 | 13 µg/mL (≈ 24.3 µM) | > 53 µg/mL | 130 nM | – | Cc1ccc(OCc2ccc(C(=O)N3CCOCC3)cc2C)c(-c2csc(N3CCC(C(=O)O)CC3)n2)c1 [Compound 49]
18 | > 58 µg/mL | 31 µg/mL (≈ 57.9 µM) | 1100 nM | – | Cc1ccc(OCc2ccc(CN3CCOCC3)cc2C)c(-c2csc(N3CCC(C)(C(=O)O)CC3)n2)c1 [Compound 51]
19 | > 58 µg/mL | > 58 µg/mL | 39 nM | – | Cc1ccc(OCc2ccc(CN3CCOCC3)cc2C)c(-c2csc(N3CCCC(C(=O)O)CC3)n2)c1 (stereo not drawn) [Compound 52]
20 | > 53 µg/mL | > 53 µg/mL | 640 nM | – | Cc1cc(CN2CCCC(O)C2)ccc1COc1c(C)cccc1-c1csc(N2CCC(C(=O)O)CC2)n1 (stereo not drawn) [Compound 53]
21 | 16 µg/mL (≈ 29.9 µM) | 16 µg/mL (≈ 29.9 µM) | 2000 nM | – | Cc1cc(CN2CCC(O)CC2)ccc1COc1c(C)cccc1-c1csc(N2CCC(C(=O)O)CC2)n1 [Compound 54]
22 | 0.3 µg/mL (≈ 0.56 µM) | > 53 µg/mL | 360 nM | – | Cc1cc(C(=O)N2CCCCC2)ccc1COc1ccc(F)cc1-c1csc(N2CC3C(C2)C3C(=O)O)n1 (stereo not drawn) [Compound 55]
23 | 0.2 µg/mL (≈ 0.373 µM) | 29 µg/mL (≈ 54 µM) | 1600 nM | – | Cc1cc(C(=O)N2CCCCC2)ccc1COc1ccc(F)cc1-c1csc([C@H]2CC[C@@H](C(=O)O)CC2)n1 [Compound 56]
24 | – | > 53 µg/mL | 1800 nM | 0.1 μg/mL | Cc1cc(C(=O)N2CCCCC2)ccc1COc1ccc(F)cc1-c1csc([C@H]2CC[C@H](C(=O)O)CC2)n1 [Compound 57]
25 | 44 µg/mL (≈ 81.5 µM) | > 61 µg/mL | 480 nM | – | Cc1cc(CN2CCOCC2)ccc1COc1ccc(F)cc1-c1csc(N2CCC(C(=O)O)C(C)C2)n1 (stereo not drawn) [Compound 58]
26 | 0.5 µg/mL (≈ 0.93 µM) | > 53 µg/mL | 39 nM | – | Cc1cc(C(=O)N2CCCCC2)ccc1COc1ccc(F)cc1-c1csc(N2CCC(C(=O)O)CC2)n1 [Compound 59]
27 | > 58 µg/mL | > 58 µg/mL | 1200 nM | – | Cc1ccc(OCc2ccc(CN3CCOCC3)cc2C)c(-c2csc(N3CCC(F)(C(=O)O)CC3)n2)c1 [Compound 60]
28 | 44 µg/mL (≈ 81.5 µM) | > 61 µg/mL | 440 nM | – | Cc1cc(CN2CCOCC2)ccc1COc1ccc(F)cc1-c1csc(N2CCC(C(=O)O)CC2C)n1 (stereo not drawn) [Compound 61]
29 | 30 µg/mL (≈ 55.3 µM) | > 65 µg/mL | 22 nM | – | Cc1cc(CN2CCOCC2)ccc1COc1c(Cl)cccc1-c1csc(N2CCC(C(=O)O)CC2)n1 [Compound 62]
30 | 30 µg/mL (≈ 55.3 µM) | 32 µg/mL (≈ 59 µM) | 110 nM | – | Cc1cc(CN2CCOCC2)ccc1COc1ccc(Cl)cc1-c1csc(N2CCC(C(=O)O)CC2)n1 [Compound 63]

Row | SMILES | solubility [1, 3] | solubility [1, 4] | EC50 [2] | Solubility (pH 4.5) ([1]; pH 4.5 buffer)
31 | Cc1cc(CN2CCOCC2)ccc1COc1ccccc1-c1csc(N2C3CCC2CC(C(=O)O)C3)n1 (stereo not drawn) [Compound 44] | > 60 µg/mL | > 60 µg/mL | 760 nM | –

From patent publication US8815857B2 (Boehringer Ingelheim International GmbH, priority 2011, dated 2014)
